According to patent US12528790B2, “Amide derivative having antiviral activity” (Shionogi & Co., Ltd., priority 2020, dated 2026):

The compounds below were run on RSV A2 strain (assay: In vitro CPE (CytoPathic Effect) inhibition effect evaluation test, RSV type A). Conditions: human respiratory syncytial virus, HEp-2.
Assay type: cell-based
Procedure: The test sample is diluted in advance to an appropriate concentration with DMSO, and 3-fold series of serial dilutions were prepared on a 384-well plate (0.32 μL/well). HEp-2 cells (CCL-23; ATCC) adjusted at appropriate number (2.4×10^5 cells/mL) in 2% FBS E-MEM (prepared by adding kanamycin and FBS to Eagle's Minimum Essential Medium; Invitrogen) were added at 12.5 μL/well to the 384-well plate previously aliquoted with the test samples. The RSV A2 strain was diluted to an appropriate concentration in a culture medium and added to the 384-well plate containing the test sample at 12.5 μL/well. The culture medium was added additionally to the 384-well plate, and the test was started with 50 μL/well. Control wells were prepared with only virus-free culture medium. The plate was incubated in a 5% CO2 incubator at 37° C. for 4 days, and the plate was then placed at room temperature for 30 minutes. CellTiter-Glo (registered trademark) 2.0 assay (Promega) was added at 15 μL/well, mixed for 30 seconds, and the plate was placed for approximately 1 hour. The luminescent signal was then measured by EnVision (PerkinElmer). The inhibitory effect of the test agents on RSV-induced CPE was calculated as 0% and 100% inhibition rate for each sample concentration based on the level of remaining viable cells by CellTiter-Glo (registered trademark) 2.0, with the EC50 value for each compound calculated by nonlinear regression as the concentration that inhibits RSV-induced CPE by 50%. In the case of evaluation against RSV type B, RSV B (Wash/18537 strain) was infected in the same manner as the type A, cultured for 5 days, and quantitated in the same manner as for the A2 strain.
In the case of `COc1cc(COc2ccc3c(c2)CCN3c2ncc(C(=O)NC3(C(=O)O)CCCCC3)c(C(F)(F)F)n2)ccn1` [Compound I-27], the EC50 is reported as 10 to 100 nM. Compound `CN1CCC2(CC1)CN(c1ncc(C(=O)NC3(C(=O)O)CCCCC3)c(C(F)(F)F)n1)c1ccc(OCCC3CCOCC3)cc12` [Compound I-62] has an EC50 of less than 10 nM. In the case of `O=C(NC1(C(=O)O)CCCCC1)c1cnc(N2CC3(CCN(C4CCC4)CC3)c3cc(OCCC4CCOCC4)ccc32)nc1C(F)(F)F` [Compound I-63], the EC50 is reported as less than 10 nM.

Same assay, conditions: human respiratory syncytial virus; inhibitory effect against RSV type A (RSV A2 strain), HEp-2 cells, CPE inhibition; read-out: EC50
`CC1CN(c2ncccn2)CCC1Oc1ccc2c(-c3ncc(C(=O)NC4(C(=O)O)C5CC6CC(C5)CC4C6)c(C(F)(F)F)n3)cn(C3CCC(F)(F)CC3)c2c1` (single isomer, unassigned) [Compound I-391] gave an EC50 of less than 10 nM. With `O=C(NC1(C(=O)O)C2CC3CC(C2)CC1C3)c1cnc(N2c3cc(F)c(OC4CCN(c5ncccn5)CC4)cc3C3CCCCCC32)nc1C(F)(F)F` (single isomer, unassigned) [Compound I-395] the EC50 was less than 10 nM. `O=C(NC1(C(=O)O)C2CC3CC(C2)CC1C3)c1cnc(-c2cn(C3CCC(F)(F)CC3)c3cc(OC4CCC(N5CCC(F)(F)C5)CC4)ccc23)nc1C(F)(F)F` (single isomer, unassigned) [Compound I-427] gave an EC50 of less than 10 nM. For `CC(=O)OCCCCOc1ccc2c(c1)CCN2c1ncc(C(=O)NC2(C(=O)O)CCCCC2)c(C(F)(F)F)n1` [Compound I-6], the EC50 was 10 to 100 nM. `O=C(NC1(C(=O)O)CCCCC1)c1cnc(N2CC3(CC3)c3cc(Br)ccc32)nc1C(F)(F)F` [Compound I-10] gave an EC50 of 100 to 5000 nM. With `COCCCCOc1ccc2c(c1)CCN2c1ncc(C(=O)NC2(C(=O)O)CC3CCC2C3)c(C(F)(F)F)n1` (centres unmarked) [Compound I-11] the EC50 was less than 10 nM. With `O=C(NC1(C(=O)O)CC2CCC1C2)c1cnc(N2CCc3cc(OCCC4CCOCC4)ccc32)nc1C(F)(F)F` (centres unmarked) [Compound I-12] the EC50 was less than 10 nM. With `COc1cccc(COc2ccc3c(c2)CCN3c2ncc(C(=O)NC3(C(=O)O)CC4CCC3C4)c(C(F)(F)F)n2)c1` (centres unmarked) [Compound I-13] the EC50 was less than 10 nM. `COc1cccc(COc2ccc3c(c2)CCN3c2ncc(C(=O)NC3(C(=O)O)CCOCC3)c(C(F)(F)F)n2)c1` [Compound I-14] was tested, and the EC50 was 100 to 5000 nM. Compound `COc1ccc(COc2ccc3c(c2)CCN3c2ncc(C(=O)NC3(C(=O)O)CCOCC3)c(C(F)(F)F)n2)cc1` [Compound I-15] has an EC50 of 10 to 100 nM. `O=C(NC1(C(=O)O)CCC(F)(F)CC1)c1cnc(N2CCc3cc(OCCC4CCOCC4)ccc32)nc1C(F)(F)F` [Compound I-20] gave an EC50 of 10 to 100 nM. For `COCCCCOc1ccc2c(c1)CCN2c1ncc(C(=O)NC2(C(=O)O)C3CC4CC(C3)CC2C4)c(C(F)(F)F)n1` (centres unmarked) [Compound I-22], the EC50 was less than 10 nM. Work on `COc1cccc(/C=C/c2ccc3c(c2)CCN3c2ncc(C(=O)NC3(C(=O)O)CCCCC3)c(C(F)(F)F)n2)c1` [Compound I-24] yielded an EC50 of 10 to 100 nM. `COc1ccc(CCc2ccc3c(c2)CCN3c2ncc(C(=O)NC3(C(=O)O)CCCCC3)c(C(F)(F)F)n2)cc1` [Compound I-25] was tested, and the EC50 was 10 to 100 nM. `COc1cccc(CCc2ccc3c(c2)CCN3c2ncc(C(=O)NC3(C(=O)O)CCCCC3)c(C(F)(F)F)n2)c1` [Compound I-26] was tested, and the EC50 was 10 to 100 nM. `Cc1nc(COc2ccc3c(c2)CCN3c2ncc(C(=O)NC3(C(=O)O)CCCCC3)c(C(F)(F)F)n2)cs1` [Compound I-28] was tested, and the EC50 was 10 to 100 nM. `COc1cc(COc2ccc3c(c2)CCN3c2ncc(C(=O)NC3(C(=O)O)CCCCC3)c(C(F)(F)F)n2)cc(OC)c1` [Compound I-29] was tested, and the EC50 was less than 10 nM. Compound `COc1cncc(COc2ccc3c(c2)CCN3c2ncc(C(=O)NC3(C(=O)O)CCCCC3)c(C(F)(F)F)n2)c1` [Compound I-30] has an EC50 of 10 to 100 nM. `CC(C)(C)OC(=O)N1CCC(Oc2ccc3c(c2)CCN3c2ncc(C(=O)NC3(C(=O)O)CCCCC3)c(C(F)(F)F)n2)CC1` [Compound I-32] gave an EC50 of 10 to 100 nM. For `O=C(NC1(C(=O)O)CCCCC1)c1cnc(N2CCc3cc(OC4CCN(CC(F)(F)F)CC4)ccc32)nc1C(F)(F)F` [Compound I-34], the EC50 was less than 10 nM. Compound `CN(C)S(=O)(=O)NC(=O)C1(NC(=O)c2cnc(N3CCc4cc(OCCC5CCOCC5)ccc43)nc2C(F)(F)F)CCCCC1` [Compound I-35] has an EC50 of 10 to 100 nM. Compound `Cc1csc(COc2ccc3c(c2)CCN3c2ncc(C(=O)NC3(C(=O)O)CCCCC3)c(C(F)(F)F)n2)n1` [Compound I-37] has an EC50 of less than 10 nM. `O=C(NC1(C(=O)NS(=O)(=O)N2CCOCC2)CCCCC1)c1cnc(N2CCc3cc(OCCC4CCOCC4)ccc32)nc1C(F)(F)F` [Compound I-38] was tested, and the EC50 was 10 to 100 nM. Work on `COc1cccc(C(=O)Nc2ccc3c(c2)CCN3c2ncc(C(=O)NC3(C(=O)O)CCCCC3)c(C(F)(F)F)n2)c1` [Compound I-39] yielded an EC50 of 10 to 100 nM. `COc1cccc(CNc2ccc3c(c2)CCN3c2ncc(C(=O)NC3(C(=O)O)CCCCC3)c(C(F)(F)F)n2)c1` [Compound I-40] was tested, and the EC50 was less than 10 nM. `O=C(NC1(C(=O)O)CCCCC1)c1cnc(N2CCc3cc(OC4CCN(c5ccccn5)CC4)ccc32)nc1C(F)(F)F` [Compound I-41] was tested, and the EC50 was less than 10 nM. With `O=C(NC1(C(=O)O)CCCCC1)c1cnc(N2CCc3cc(OC4CCN(c5nccs5)CC4)ccc32)nc1C(F)(F)F` [Compound I-42] the EC50 was less than 10 nM. In the case of `Cc1nsc(COc2ccc3c(c2)CCN3c2ncc(C(=O)NC3(C(=O)O)CCCCC3)c(C(F)(F)F)n2)n1` [Compound I-43], the EC50 is reported as 10 to 100 nM. Compound `O=C(NC1(C(=O)O)CCCCC1)c1cnc(N2CC3(CC3)c3cc(OCCC4CCOCC4)ccc32)nc1C(F)(F)F` [Compound I-44] has an EC50 of 10 to 100 nM. `O=C(NC1(C(=O)O)CCC1)c1cnc(N2CCc3cc(OC4CCN(c5ncccn5)CC4)ccc32)nc1C(F)(F)F` [Compound I-46] gave an EC50 of 10 to 100 nM. Compound `O=C(NC1(C(=O)O)CCOCC1)c1cnc(N2CCc3cc(OC4CCN(c5ncccn5)CC4)ccc32)nc1C(F)(F)F` [Compound I-47] has an EC50 of 10 to 100 nM. `O=C(NC1(C(=O)O)CCCC1)c1cnc(N2CCc3cc(OC4CCN(c5ncccn5)CC4)ccc32)nc1C(F)(F)F` [Compound I-48] showed an EC50 of less than 10 nM. `O=C(NC1(C(=O)O)CCC(F)(F)CC1)c1cnc(N2CCc3cc(OC4CCN(c5ncccn5)CC4)ccc32)nc1C(F)(F)F` [Compound I-49] gave an EC50 of 10 to 100 nM. Work on `O=C(NC1(C(=O)O)CCCCC1)c1cnc(N2CCc3cc(OC4CCN(c5cccnc5)CC4)ccc32)nc1C(F)(F)F` [Compound I-51] yielded an EC50 of 10 to 100 nM. Compound `O=C(NC1(C(=O)O)CCCCC1)c1cnc(N2CCc3cc(OCCNc4ncccn4)ccc32)nc1C(F)(F)F` [Compound I-52] has an EC50 of 10 to 100 nM. With `CC1(C)CN(c2ncc(C(=O)NC3(C(=O)O)CCCCC3)c(C(F)(F)F)n2)c2ccc(OCCC3CCOCC3)cc21` [Compound I-54] the EC50 was less than 10 nM. Compound `O=C(NC1(C(=O)O)CCCCC1)c1cnc(N2CC3(CCCCC3)c3cc(OCCC4CCOCC4)ccc32)nc1C(F)(F)F` [Compound I-55] has an EC50 of less than 10 nM. For `CCc1nc(COc2ccc3c(c2)CCN3c2ncc(C(=O)NC3(C(=O)O)CCCCC3)c(C(F)(F)F)n2)cs1` [Compound I-59], the EC50 was 10 to 100 nM. Work on `O=C(NC1(C(=O)O)CCCCC1)c1cnc(N2CC3(CCN(C(=O)OCc4ccccc4)CC3)c3cc(OCCC4CCOCC4)ccc32)nc1C(F)(F)F` [Compound I-61] yielded an EC50 of less than 10 nM.

Same assay, conditions: inhibitory effect against RSV type A (RSV A2 strain), HEp-2 cells, CPE inhibition; read-out: EC50
With `CC1CN(c2ncccn2)CCC1Oc1ccc2c(-c3ncc(C(=O)NC4(C(=O)O)C5CC6CC(C5)CC4C6)c(C(F)(F)F)n3)cn(C3CCC(F)(F)CC3)c2c1` (single isomer, unassigned) [Compound I-392] the EC50 was less than 10 nM. Compound `O=C(NC1(C(=O)O)C2CC3CC(C2)CC1C3)c1ccc(-c2cn(C3CCC(F)CC3)c3cc(OC4CCN(c5ncc(F)cn5)CC4)ccc23)nc1C(F)(F)F` (single isomer, unassigned) [Compound I-398] has an EC50 of less than 10 nM. With `CC1CN(c2ncccn2)CCC1Oc1ccc2c(-c3ncc(C(=O)NC4(C(=O)O)C5CC6CC(C5)CC4C6)c(C(F)(F)F)n3)cn(C3CCC(F)(F)CC3)c2c1` (single isomer, unassigned) [Compound I-404] the EC50 was less than 10 nM. `CC1CN(c2ncccn2)CCC1Oc1ccc2c(-c3ncc(C(=O)NC4(C(=O)O)C5CC6CC(C5)CC4C6)c(C(F)(F)F)n3)cn(C3CCC(F)(F)CC3)c2c1` (single isomer, unassigned) [Compound I-405] gave an EC50 of less than 10 nM. Work on `COC1CCC(n2cc(-c3ncc(C(=O)NC4(C(=O)O)C5CC6CC(C5)CC4C6)c(C(F)(F)F)n3)c3ccc(OC4CCN(c5ncc(F)cn5)CC4)cc32)CC1` (single isomer, unassigned) [Compound I-424] yielded an EC50 of less than 10 nM. For `O=C(NC1(C(=O)O)C2CC3CC(C2)CC1C3)c1cnc(-c2cn(C3CCC(F)CC3)c3cc(O[C@H]4CC[C@H](N5CC(F)(F)C5)CC4)ccc23)nc1C(F)(F)F` (single isomer, unassigned) [Compound I-510], the EC50 was less than 10 nM. Compound `CC(F)(F)c1nc(-c2cn(C3CCC(F)CC3)c3cc(O[C@H]4CC[C@H](N5CC(F)(F)C5)CC4)ccc23)ncc1C(=O)NC1(C(=O)O)C2CC3CC(C2)CC1C3` (single isomer, unassigned) [Compound I-571] has an EC50 of less than 10 nM. With `O=C(NC1(C(=O)O)C2CC3CC(C2)CC1C3)c1ccc(-c2cn(C3CCC(F)CC3)c3cc(O[C@H]4CC[C@H](N5CC(F)(F)C5)CC4)ccc23)nc1C(F)(F)F` (single isomer, unassigned) [Compound I-584] the EC50 was less than 10 nM.
